Assays:
STAT5A = molecular target: T1, STAT5A (Homo sapiens, UniProt P42229); experiment: Fluorescence polarization (FP) binding assay, STAT5A; conditions: FP competition, 5 nM fluorescein-labeled tracer, 200 nM protein, PBS pH7.4
T1 sequence (P42229 1-794): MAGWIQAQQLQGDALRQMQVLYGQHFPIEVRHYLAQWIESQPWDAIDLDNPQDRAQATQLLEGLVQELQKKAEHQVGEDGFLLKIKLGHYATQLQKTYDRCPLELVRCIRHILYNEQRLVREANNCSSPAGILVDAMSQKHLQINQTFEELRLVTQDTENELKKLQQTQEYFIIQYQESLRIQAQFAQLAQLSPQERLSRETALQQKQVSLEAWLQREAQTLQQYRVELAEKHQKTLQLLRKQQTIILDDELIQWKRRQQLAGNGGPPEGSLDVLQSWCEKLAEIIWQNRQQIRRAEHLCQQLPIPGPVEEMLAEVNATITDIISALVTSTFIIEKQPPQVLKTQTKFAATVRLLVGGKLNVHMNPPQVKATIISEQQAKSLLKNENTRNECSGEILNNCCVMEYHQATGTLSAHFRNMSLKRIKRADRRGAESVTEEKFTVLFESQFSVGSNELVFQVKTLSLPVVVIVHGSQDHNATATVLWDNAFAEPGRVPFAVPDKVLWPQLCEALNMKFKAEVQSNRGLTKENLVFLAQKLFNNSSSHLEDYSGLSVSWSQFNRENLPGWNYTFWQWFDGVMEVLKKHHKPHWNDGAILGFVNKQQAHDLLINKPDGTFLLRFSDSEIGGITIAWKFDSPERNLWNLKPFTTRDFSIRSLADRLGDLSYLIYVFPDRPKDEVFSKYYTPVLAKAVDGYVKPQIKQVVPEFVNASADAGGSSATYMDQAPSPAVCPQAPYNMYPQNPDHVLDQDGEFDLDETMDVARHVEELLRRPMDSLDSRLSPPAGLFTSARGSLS
Outline: (§1)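 5 nM fluorescein tracer + 200 nM STAT protein; PBS pH 7.4, 0.01% BGG, 0.01% Tween-20, 2 mM DTT; shake 15 min, 1 h RT equilibrium; FP read; nonlinear fit for inhibition constants.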

STAT6 protein = molecular target: T2, STAT6 protein (Homo sapiens, UniProt P42226); experiment: Fluorescence polarization (FP) binding assay, STAT6; conditions: FP competition, 5 nM fluorescein-labeled tracer, 200 nM protein, PBS pH7.4; read-out: Binding STAT6
T2 sequence (P42226 1-847): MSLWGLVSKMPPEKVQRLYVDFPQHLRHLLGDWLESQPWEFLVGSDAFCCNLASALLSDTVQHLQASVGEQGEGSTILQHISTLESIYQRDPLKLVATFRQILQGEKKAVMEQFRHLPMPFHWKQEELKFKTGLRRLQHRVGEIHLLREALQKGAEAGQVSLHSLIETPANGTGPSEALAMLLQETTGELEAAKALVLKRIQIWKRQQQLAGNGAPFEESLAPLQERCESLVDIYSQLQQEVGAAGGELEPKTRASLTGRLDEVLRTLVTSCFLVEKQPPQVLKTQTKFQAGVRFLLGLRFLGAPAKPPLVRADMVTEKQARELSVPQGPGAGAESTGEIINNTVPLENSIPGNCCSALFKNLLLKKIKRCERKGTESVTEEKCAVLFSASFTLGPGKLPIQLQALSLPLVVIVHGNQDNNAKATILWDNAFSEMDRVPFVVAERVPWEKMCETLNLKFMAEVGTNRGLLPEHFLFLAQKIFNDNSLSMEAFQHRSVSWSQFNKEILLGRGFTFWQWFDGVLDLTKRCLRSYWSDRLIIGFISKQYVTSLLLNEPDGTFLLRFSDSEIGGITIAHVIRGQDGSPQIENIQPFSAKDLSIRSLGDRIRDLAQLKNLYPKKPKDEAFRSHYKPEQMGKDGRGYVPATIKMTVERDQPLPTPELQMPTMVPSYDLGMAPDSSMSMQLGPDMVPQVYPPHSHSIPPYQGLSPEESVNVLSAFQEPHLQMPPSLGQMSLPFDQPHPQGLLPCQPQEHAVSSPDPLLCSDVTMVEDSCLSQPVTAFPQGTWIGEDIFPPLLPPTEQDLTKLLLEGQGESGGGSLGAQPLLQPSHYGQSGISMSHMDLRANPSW
Outline: as §1

Row | Ki (STAT5A) | Ki (STAT6 protein) | Compound
1 | > 10 µM | > 10 µM | CC(C)(C)[C@H](NC(=O)/C=C/c1ccc(C(F)(F)P(=O)(O)O)cc1)C(=O)N1CCC[C@H]1c1nc(Cc2ccccc2)cs1 [Compound 18, ((4-((E)-3-(((S)-1-((S)-2-(4-benzylthiazol-2-yl)pyrrolidin-1-yl)-3,3-dimethyl-1-oxobutan-2-yl)amino)-3-oxoprop-1-en-1-yl)phenyl)difluoromethyl)phosphonic acid]
2 | > 10 µM | > 10 µM | CC(C)(C)[C@H](NC(=O)/C=C/c1ccc(C(F)(F)P(=O)(O)O)cc1)C(=O)N1CCC[C@H]1c1nc(-c2ccccc2)cs1 [Compound 20, ((4-((E)-3-(((S)-3,3-dimethyl-1-oxo-1-((S)-2-(4-phenylthiazol-2-yl)pyrrolidin-1-yl)butan-2-yl)amino)-3-oxoprop-1-en-1-yl)phenyl)difluoromethyl)phosphonic acid]
3 | > 10 µM | 1 to 10 µM | CC(C)(C)[C@H](NC(=O)c1cc2cc(C(F)(F)P(=O)(O)O)ccc2[nH]1)C(=O)N1CCC[C@H]1c1ncc(-c2ccccc2)s1 [Compound 21, ((2-(((S)-3,3-dimethyl-1-oxo-1-((S)-2-(5-phenylthiazol-2-yl)pyrrolidin-1-yl)butan-2-yl)carbamoyl)-1H-indol-5-yl)difluoromethyl)phosphonic acid]
4 | > 10 µM | > 10 µM | CC(C)(C)[C@H](NC(=O)/C=C/c1ccc(C(F)(F)P(=O)(O)O)cc1)C(=O)N1CCC[C@H]1c1ncc(-c2ccccc2)s1 [Compound 22, ((4-((E)-3-(((S)-3,3-dimethyl-1-oxo-1-((S)-2-(5-phenylthiazol-2-yl)pyrrolidin-1-yl)butan-2-yl)amino)-3-oxoprop-1-en-1-yl)phenyl)difluoromethyl)phosphonic acid]
5 | > 10 µM | > 10 µM | CC(C)(C)[C@H](NC(=O)/C=C/c1ccc(C(F)(F)P(=O)(O)O)cc1)C(=O)N1CCC[C@H]1c1ncc(Cc2ccccc2)s1 [Compound 26, ((4-((E)-3-(((S)-1-((S)-2-(5-benzylthiazol-2-yl)pyrrolidin-1-yl)-3,3-dimethyl-1-oxobutan-2-yl)amino)-3-oxoprop-1-en-1-yl)phenyl)difluoromethyl)phosphonic acid]

Continued, molecule first:

Row | Compound | Ki (STAT5A) | Ki (STAT6 protein)
6 | CC(C)(C)[C@H](NC(=O)c1cc2cc(C(F)(F)P(=O)(O)O)ccc2[nH]1)C(=O)N1CCC[C@H]1C(=O)N[C@@H]1C[C@H]1c1ccccc1 [Compound 16, ((2-(((S)-3,3-dimethyl-1-oxo-1-((S)-2-(((1R,2S)-2-phenylcyclopropyl)carbamoyl)pyrrolidin-1-yl)butan-2-yl)carbamoyl)-1H-indol-5-yl)difluoromethyl)phosphonic acid] | > 10 µM | 1 to 10 µM
7 | CC(C)(C)[C@H](NC(=O)c1cc2cc(C(F)(F)P(=O)(O)O)ccc2[nH]1)C(=O)N1CCC[C@H]1c1nc(Cc2ccccc2)cs1 [Compound 17, ((2-(((S)-1-((S)-2-(4-benzylthiazol-2-yl)pyrrolidin-1-yl)-3,3-dimethyl-1-oxobutan-2-yl)carbamoyl)-1H-indol-5-yl)difluoromethyl)phosphonic acid] | 1 to 10 µM | 1 to 10 µM
8 | CC(C)(C)[C@H](NC(=O)c1cc2cc(C(F)(F)P(=O)(O)O)ccc2[nH]1)C(=O)N1CCC[C@H]1c1nc(-c2ccccc2)cs1 [Compound 19, ((2-(((S)-3,3-dimethyl-1-oxo-1-((S)-2-(4-phenylthiazol-2-yl)pyrrolidin-1-yl)butan-2-yl)carbamoyl)-1H-indol-5-yl)difluoromethyl)phosphonic acid] | > 10 µM | 1 to 10 µM
9 | O=C(N[C@@H](CC1CCCCC1)C(=O)N1CCC[C@H]1C(=O)N1CCc2ccccc2C1)c1cc2cc(C(F)(F)P(=O)(O)O)ccc2[nH]1 [Compound 23, ((2-(((S)-3-cyclohexyl-1-oxo-1-((S)-2-(1,2,3,4-tetrahydroisoquinoline-2-carbonyl)pyrrolidin-1-yl)propan-2-yl)carbamoyl)-1H-indol-5-yl)difluoromethyl)phosphonic acid] | 1 to 10 µM | 1 to 10 µM
10 | O=C(/C=C/c1ccc(C(F)(F)P(=O)(O)O)cc1)N[C@@H](CC1CCCCC1)C(=O)N1CCC[C@H]1C(=O)N1CCc2ccccc2C1 [Compound 24, ((4-((E)-3-(((S)-3-cyclohexyl-1-oxo-1-((S)-2-(1,2,3,4-tetrahydroisoquinoline-2-carbonyl)pyrrolidin-1-yl)propan-2-yl)amino)-3-oxoprop-1-en-1-yl)phenyl)difluoromethyl)phosphonic acid] | > 10 µM | > 10 µM
11 | CC(C)(C)[C@H](NC(=O)c1cc2cc(C(F)(F)P(=O)(O)O)ccc2[nH]1)C(=O)N1CCC[C@H]1c1ncc(Cc2ccccc2)s1 [Compound 25, ((2-(((S)-1-((S)-2-(5-benzylthiazol-2-yl)pyrrolidin-1-yl)-3,3-dimethyl-1-oxobutan-2-yl)carbamoyl)-1H-indol-5-yl)difluoromethyl)phosphonic acid] | 1 to 10 µM | > 10 µM
12 | O=C(N[C@@H](Cc1ccncc1)C(=O)N1CCC[C@H]1C(=O)N1CCc2ccccc2C1)c1cc2cc(C(F)(F)P(=O)(O)O)ccc2[nH]1 [Compound 27, (difluoro(2-(((S)-1-oxo-3-(pyridin-4-yl)-1-((S)-2-(1,2,3,4-tetrahydroisoquinoline-2-carbonyl)pyrrolidin-1-yl)propan-2-yl)carbamoyl)-1H-indol-5-yl)methyl)phosphonic acid] | > 10 µM | 1 to 10 µM
13 | O=C(NC(C(=O)N1CCC[C@H]1C(=O)N1CCc2ccccc2C1)C1CCNCC1)c1cc2cc(C(F)(F)P(=O)(O)O)ccc2[nH]1 (stereo partly drawn) [Compound 28, (difluoro(2-((2-oxo-1-(piperidin-4-yl)-2-((S)-2-(1,2,3,4-tetrahydroisoquinoline-2-carbonyl)pyrrolidin-1-yl)ethyl)carbamoyl)-1H-indol-5-yl)methyl)phosphonic acid] | > 10 µM | > 10 µM
14 | O=C(/C=C/c1ccc(C(F)(F)P(=O)(O)O)cc1)NC(C(=O)N1CCC[C@H]1C(=O)N1CCc2ccccc2C1)C1CCNCC1 (stereo partly drawn) [Compound 29, (difluoro(4-((E)-3-oxo-3-((2-oxo-1-(piperidin-4-yl)-2-((S)-2-(1,2,3,4-tetrahydroisoquinoline-2-carbonyl)pyrrolidin-1-yl)ethyl)amino)prop-1-en-1-yl)phenyl)methyl)phosphonic acid] | > 10 µM | > 10 µM
15 | CC(C)(C)[C@H](NC(=O)c1cc2cc(C(F)(F)P(=O)(O)O)ccc2[nH]1)C(=O)N1CCC[C@H]1C(=O)Nc1nc(-c2ccccc2)cs1 [Compound 30, ((2-(((S)-3,3-dimethyl-1-oxo-1-((S)-2-((4-phenylthiazol-2-yl)carbamoyl)pyrrolidin-1-yl)butan-2-yl)carbamoyl)-1H-indol-5-yl)difluoromethyl)phosphonic acid] | > 10 µM | > 10 µM
16 | CC(C)(C)[C@H](NC(=O)c1cc2cc(C(F)(F)P(=O)(O)O)ccc2[nH]1)C(=O)N1CCC[C@H]1C(=O)Nc1ncc(-c2ccccc2)s1 [Compound 31, ((2-(((S)-3,3-dimethyl-1-oxo-1-((S)-2-((5-phenylthiazol-2-yl)carbamoyl)pyrrolidin-1-yl)butan-2-yl)carbamoyl)-1H-indol-5-yl)difluoromethyl)phosphonic acid] | 0.1 to 1 µM | > 10 µM
